Assay results from patent publication US20120016010A1, “RNA Interference Mediated Inhibition of BTB and CNC Homology 1, Basic Leucine Zipper Transcription Factor 1 (BACH1) Gene Expression Using Short Interfering Nucleic Acid (siNA)” (Merck Sharp & Dohme Corp, priority 2009, published 2012).
[invAb] = inverted abasic unit; d = 2'-deoxy (DNA); m = 2'-O-methyl; r = 2'-OH (RNA); f = 2'-fluoro

Legend:
Bach1 mRNA [1] = experiment: Initial screen: Bach1 mRNA knock-down in human A549 cells (96-well transfection, quantitative RT-PCR); assay type: cell-based; settings: Bach1 mRNA, 10 nM siNA, human A549 cells, n = 2, mean ± S.D., normalized to GAPDH and non-targeting control, 24 hrs post-transfection
Method: (§1) All cells were obtained from ATCC (Manassas, Va.) unless otherwise indicated. Cells were grown and transfected under standard conditions, which are detailed below for each cell line.
(§2) Cells were plated in all wells of a tissue-culture treated, 96-well plate at a final count of 5000 cells/well in 100 μL of the appropriate culture media. The cells were cultured for 24 hours after plating at 37° C. in the presence of 5% CO2.
(§3) After 24 hours, complexes containing siNA and RNAiMax were created as follows: A solution of RNAiMax diluted 33-fold in OPTI-MEM was prepared. […] After incubation of RNAiMax/OPTI-MEM solution at room temperature for 5 min, an equal volume of the siNA solution and the RNAiMax solution were added together for each of the siNAs.
(§4) This solution was incubated at room temperature for 20 minutes. After incubation, 20 uL of the solution was added to each of the relevant wells. The final concentration of siNA in each well was 10 nM and the final volume of RNAiMax in each well was 0.3 ul. […]
(§5) Briefly, a 60 uL (1 plate) or 110 uL (2 plates) of the Lysis Solution with DNase I was dispensed into each well of the Lysis Buffer Plate (twin.tec full skirt plate). The lysis buffer and stop plates were stored at 4° C. until the cells were washed.
(§6) The plate was spun at 1100 rpm for 5 minutes. The culture medium was aspirated and discarded from the wells of the culture plate. The lysis was performed automatically using a BioMek FX instrument and method. After the Biomek method was completed, the lysis plate was incubated for 2 min at room temperature. The lysis plate can be stored for 2 hours at 4° C., or at −20° C. or −80° C. for two months.
(§7) Each well of the reverse transcription plate required 10 uL of 2× reverse transcriptase Buffer, 1 uL of 20× reverse transcription enzyme and 2 uL of nuclease-free water. The reverse transcription master mix was prepared by mixing 2× reverse transcription buffer, 20× reverse transcription enzyme mix, and nuclease-free water. 13 uL of the reverse transcription master mix was dispensed into each well of the reverse transcription plate (semi-skirted). A separate reverse transcription plate was prepared for each cell plate. The plate was loaded onto a Biomek NX or Biomek FX Dual −96 and the Biomek method was run. The program is programmed to automatically added 7 uL of lysate from the cell lysis procedure described above into each well of the reverse transcription plate. The plate is sealed and spun on a centrifuge (1000 rpm for 30 seconds) to settle the contents to the bottom of the reverse transcription plate. The plate is placed in a thermocycler at 37° C. for 60 min, 95° C. for 5 min, and 4° C. until the plate is removed from the thermocycler. Upon removal, if not used immediately, the plate was frozen at −20° C.
(§8) A series of probes and primers were used to detect the various mRNA transcripts of the genes of Bach1, HMOX-1, and GAPDH in mouse and human cell lines. The assays were performed on an ABI 7900 instrument, according to the manufacturer's instructions. […] The PCR reactions were carried out at 50° C. for 2 min, 95° C. for 20 min followed by 40 cycles at 95° C. for 15 secs and 60° C. for 1 min
(§9) Within each experiment, the […] was set in the exponential phase of the amplification curve, and based on the intersection point of the baselines with the amplification curve, a Ct value was assigned by the instrument.
(§10) The expression level of the gene of interest and % knock-down was calculated using Comparative Ct method:
(§11) ΔCt=ΔCt(Target siRNA)−ΔCt(NTC)
(§12) Relative expression level=2^−ΔΔCt
(§13) The non-targeting control siNA was, unless otherwise indicated, chosen as the value against which to calculate the % knock-down, because it is the most relevant control.

Bach1 mRNA [2] = experiment: Initial screen: Bach1 mRNA knock-down in mouse NIH 3T3 cells (96-well transfection, quantitative RT-PCR); assay type: cell-based; settings: mouse NIH3T3 cells, n = 2, 24 hrs post-transfection, protocol 10 nM siNA
Method: as §1, §2, §3, §4, §5, §6, §7, §8, §9, §10, §11, §12, §13

Substance | % KD (Bach1 mRNA [1]) [%] | % KD (Bach1 mRNA [2]) [%]
29963-DC: Bach1 siNA duplex, target site 362; sense B GGAuuuGAAccuuuAAuuc TTB (SEQ 75); antisense GAAuuAAAGGuucAAAuccUU (SEQ 76) (sense GGAUUUGAACCUUUAAUUCTT; antisense GAAUUAAAGGUUCAAAUCCUU; sense: DNA at AGT, 2'-fluoro at CU, [invAb] at 5' end, 3' end, backbone not given here; antisense: sugars from the 5' end rrrffmmmmmfffmmmfffmm, backbone not given here) | 32.9 ± 3.4 | 18.5 ± 2.2
29965-DC: Bach1 siNA duplex, target site 596; sense B GAccAGAGGGAucuAGAAA TTB (SEQ 79); antisense UUUcuAGAucccucuGGucUU (SEQ 80) (sense GACCAGAGGGAUCUAGAAATT; antisense UUUCUAGAUCCCUCUGGUCUU; sense: sugars from the 5' end d2 f2 d7 f3 d7, [invAb] at 5' end, 3' end, backbone not given here; antisense: sugars from the 5' end rrrffmmmfffffffmmffmm, backbone not given here) | 34.4 ± 3.6 | 4.8 ± 6.3
29966-DC: Bach1 siNA duplex, target site 1375; sense B GGccAAAGAuGGcucAGAA TTB (SEQ 81); antisense UUCuGAGccAucuuuGGccUU (SEQ 82) (sense GGCCAAAGAUGGCUCAGAATT; antisense UUCUGAGCCAUCUUUGGCCUU; sense: DNA at AGT, 2'-fluoro at CU, [invAb] at 5' end, 3' end, backbone not given here; antisense: sugars from the 5' end rrrfmmmffmfffffmmffmm, backbone not given here) | 57.3 ± 5.9 | −12.7 ± 7.4
29967-DC: Bach1 siNA duplex, target site 494 (mouse); sense B GAGuuucuAAGcGuAcAcA TTB (SEQ 83); antisense UGUGuAcGcuuAGAAAcucUU (SEQ 84) (sense GAGUUUCUAAGCGUACACATT; antisense UGUGUACGCUUAGAAACUCUU; sense: DNA at AGT, 2'-fluoro at CU, [invAb] at 5' end, 3' end, backbone not given here; antisense: sugars from the 5' end rrrmfmfmfffmmmmmfffmm, backbone not given here) | 34.6 ± 6.7 | 34.7 ± 8.4
29968-DC: Bach1 siNA duplex, target site 671 (mouse); sense B GcAGAuGAAuucuuGGAAA TTB (SEQ 85); antisense UUUccAAGAAuucAucuGcUU (SEQ 86) (sense GCAGAUGAAUUCUUGGAAATT; antisense UUUCCAAGAAUUCAUCUGCUU; sense: DNA at AGT, 2'-fluoro at CU, [invAb] at 5' end, 3' end, backbone not given here; antisense: sugars from the 5' end rrrffmmmmmfffmfffmfmm, backbone not given here) | 28.2 ± 3.7 | 71 ± 8.7
29969-DC: Bach1 siNA duplex, target site 1790 (mouse); sense B GAuuuccAAuccuuGuuGA TTB (SEQ 87); antisense UCAAcAAGGAuuGGAAAucUU (SEQ 88) (sense GAUUUCCAAUCCUUGUUGATT; antisense UCAACAAGGAUUGGAAAUCUU; sense: DNA at AGT, 2'-fluoro at CU, [invAb] at 5' end, 3' end, backbone not given here; antisense: sugars from the 5' end rrrmfmmmmmffmmmmmffmm, backbone not given here) | 36 ± 7.3 | 72.7 ± 4.5
29970-DC: Bach1 siNA duplex, target site 1472 (mouse); sense B GAGuGucccuGGuuGGGuA TTB (SEQ 89); antisense UACccAAccAGGGAcAcucUU (SEQ 90) (sense GAGUGUCCCUGGUUGGGUATT; antisense UACCCAACCAGGGACACUCUU; sense: DNA at AGT, 2'-fluoro at CU, [invAb] at 5' end, 3' end, backbone not given here; antisense: sugars from the 5' end rrrffmmffmmmmmfmfffmm, backbone not given here) | 46.8 ± 5.1 | 69.4 ± 4.8
29971-DC: Bach1 siNA duplex, target site 2488 (mouse); sense B GuAGcuuucuGuuGAGGGA TTB (SEQ 91); antisense UCCcucAAcAGAAAGcuAcUU (SEQ 92) (sense GUAGCUUUCUGUUGAGGGATT; antisense UCCCUCAACAGAAAGCUACUU; sense: sugars from the 5' end rfddffffffdffdddddddd, [invAb] at 5' end, 3' end, backbone not given here; antisense: sugars from the 5' end rrrfffmmfmmmmmmffmfmm, backbone not given here) | 23.9 ± 3.8 | 75 ± 4.7
29972-DC: Bach1 siNA duplex, target site 1262 (mouse); sense B GAuuuAuAucuGAAGucuA TTB (SEQ 93); antisense UAGAcuucAGAuAuAAAucUU (SEQ 94) (sense GAUUUAUAUCUGAAGUCUATT; antisense UAGACUUCAGAUAUAAAUCUU; sense: DNA at AGT, 2'-fluoro at CU, [invAb] at 5' end, 3' end, backbone not given here; antisense: sugars from the 5' end rrrmffffmmmfmfmmmffmm, backbone not given here) | −3.3 ± 27.4 | 71.7 ± 5.5
29973-DC: Bach1 siNA duplex, target site 1780 (mouse); sense B cucAcGAAAuGAuuuccAA TTB (SEQ 95); antisense UUGGAAAucAuuucGuGAGUU (SEQ 96) (sense CUCACGAAAUGAUUUCCAATT; antisense UUGGAAAUCAUUUCGUGAGUU; sense: DNA at AGT, 2'-fluoro at CU, [invAb] at 5' end, 3' end, backbone not given here; antisense: sugars from the 5' end rrrmmmmffmffffmfmmmmm, backbone not given here) | −8 ± 11.1 | 76.4 ± 5.3
29974-DC: Bach1 siNA duplex, target site 1739 (mouse); sense B GAGGuGAAGcuGccAuucA TTB (SEQ 97); antisense UGAAuGGcAGcuucAccucUU (SEQ 98) (sense GAGGUGAAGCUGCCAUUCATT; antisense UGAAUGGCAGCUUCACCUCUU; sense: DNA at AGT, 2'-fluoro at CU, [invAb] at 5' end, 3' end, backbone not given here; antisense: sugars from the 5' end rrrmfmmfmmffffmffffmm, backbone not given here) | −4.3 ± 15.5 | −12 ± 6.9
29975-DC: Bach1 siNA duplex, target site 1893 (mouse); sense B GucGcAAGAGGAAAcuuGA TTB (SEQ 99); antisense UCAAGuuuccucuuGcGAcUU (SEQ 100) (sense GUCGCAAGAGGAAACUUGATT; antisense UCAAGUUUCCUCUUGCGACUU; sense: DNA at AGT, 2'-fluoro at CU, [invAb] at 5' end, 3' end, backbone not given here; antisense: sugars from the 5' end rrrmmfffffffffmfmmfmm, backbone not given here) | 59 ± 8.3 | 40.4 ± 0.4
